In brackets after ≈: the same amount, converted by molar mass. Like-named read-outs stand apart in the source and are kept apart here.

The test system of data set [1] is MDA-MB-231 (breast cancer). Kind of data set: MTT antiproliferative assay on MDA-MB-231 cells. The format is cell-based. As to conditions: for IC50: Homo sapiens. As to the method: (§1) Selected cell lines MRC-5 (lung fibroblasts), A549 (lung cancer), A375 (melanoma, skin cancer), MDA-MB-231 (breast cancer), and HCT116 (colon cancer) were obtained from ATCC, Manassas, US. Antiproliferative activities of PG and its Br derivatives were measured using the standard colorimetric MTT [3-(4,5-dimethylthiazol-2-yl)-2,5-diphenyltetrazolium bromide] assay. Briefly, cells were plated in a 96-well flat-bottom plate (Sarstedt, Nümbrecht, Germany) at a concentration of 1 × 10^4 cells per well, grown in a humidified atmosphere of 95% air and 5% CO2 at 37 °C, and maintained as monolayer cultures in RPMI 1640 medium supplemented with 10% fetal bovine serum (FBS), 100 U/mL penicillin, and 100 μg/mL streptomycin (all media components from Gibco™ by Thermo Fischer Scientific CE). Each tested compound was added to the cells at a concentration of 0.05–100.00 μg/mL, and the treatment lasted for 48 h. The MTT assay was performed two times in four replicates, and the results were presented as a percentage of the DMSO-treated control that was arbitrarily set to 100%. Plates were read using the Tecan Infinite 200 Pro multiplate reader (Tecan Group Ltd., Männendorf, Switzerland).
In general terms: Tetrazolium dyes change colour on reduction, which living cells bring about.

Data set [2] has as its system A375 (melanoma, skin cancer). Briefly: MTT antiproliferative assay on A375 cells. The data set is classed as cell-based. As to conditions: Homo sapiens. As to the method:
as §1

For data set [3], the system named is zebrafish (Danio rerio) embryos. Kind of data set: Zebrafish (D. rerio) embryotoxicity. The format is in vivo. The following applies: for death rate: 10 µg/mL applied at 6 hpf. The procedure: Wild-type zebrafish (Danio rerio) strain was obtained from the commercial supplier Pet Center, Belgrade, Serbia. Zebrafish embryotoxicity assay was performed according to general rules of the OECD Guidelines for the testing of chemicals. The wild-type zebrafish (D. rerio) strain was kept under controlled environmental conditions (water temperature 28 °C, 14 h under the light and 10 h in the dark) and fed regularly three times a day with commercially dry flake food supplemented with Artemia nauplii (TetraMinTM flakes; Tetra Melle, Germany). Zebrafish embryos were produced by female and male adults mating in the ratio of 1:2. Obtained embryos were collected and washed from detritus and carefully handled. Only fertilized embryos were selected and distributed into 24-well plates (Sarstedt, Germany) containing 10 embryos per well. Each well contained exactly 1 mL of water for embryos (0.2 g/L of Instant Ocean® Salt in distilled water). For assessing lethal and developmental toxicity, embryos at the 6 and 20 h postfertilization (hpf) stages were treated with selected compounds at concentrations of 0.1–100 μg/mL (maximum DMSO concentration in the negative control was 1%) and incubated at 28 °C. Experiments were performed in triplicate, using 30 embryos for each concentration. For five days, the appearance of different morphophysiological parameters in embryo development was monitored, and dead embryos were counted and discarded every 24 h. On the fifth day, the embryos were anesthetized by the addition of 0.1% (w/v) tricaine solution (Sigma-Aldrich, St. Louis, Missouri, US), observed under a stereomicroscope (SMZ-143-N2GG, Motic, Germany) at 3.5× magnification, photographed, and killed by freezing at −20 °C for ≥24 h. All experiments involving zebrafish were performed in compliance with the European directive 2010/63/EU and the ethical guidelines of the Guide for Care and Use of Laboratory Animals of the Institute of Molecular Genetics and Genetic Engineering, University of Belgrade, Serbia.

Data set [4] deals with A549, A375, MDA-MB-231, and HCT116 cancer cell lines. Kind of data set: MTT assay, whole cell line panel. The format is cell-based. As to conditions: 48 h. As to the method: as §1
The subject of another data set is MRC-5 (lung fibroblasts). Kind of data set: MTT antiproliferative assay on MRC-5 cells. The data set is classed as cell-based. The following applies: for IC50: Homo sapiens. The procedure: as §1
To assess the effect of the treatment duration, exposure of MRC-5 and HCT116 cells to PG and its Br derivatives was observed after 24 h, 48 h, and 72 h and measured using the MTT assay, as described above. MRC-5 and HCT-116 cells treated for 24 h were additionally analyzed using DM IL LED Inverted Microscope (Leica Microsystems, Mannheim, Germany) at 20× magnification.

Data set [5] has as its system Caenorhabditis elegans AU37. Briefly: Roundworm (C. elegans) survival assay. The data set is classed as in vivo. The following applies: for Survival rate: 48 h. The procedure:
Nematode roundworms (Caenorhabditis elegans AU37) were obtained from the Caenorhabditis Genetics Center (CGC), University of Minnesota, Minneapolis, Minnesota, US. C. elegans AU37 (glp-4; sek-1) was propagated under standard conditions, synchronized by hypochlorite bleaching, and cultured on nematode growth medium using E. coli OP50 as a food source, as described previously. The C. elegans survival assay was carried out following the standard procedure with some modifications. Briefly, synchronized worms (L4 stage) were suspended in a medium containing 95% M9 buffer (3.0 g of KH2PO4, 6.0 g of Na2HPO4, 5.0 g of NaCl, and 1 mL of 1 M MgSO4∙7H2O in 1 L of water), 5% LB broth, and 10 μg/mL of cholesterol (Sigma-Aldrich, Munich, Germany). The experiment was carried out in 96-well flat-bottomed microtiter plates (Sarstedt, Nümbrecht, Germany) in the final volume of 100 μL per well. 25 μL of this suspension of nematodes (25–35 nematodes) were transferred to the wells of a 96-well microtiter plate, where 50 μL of the medium was previously added. Next, 25 μL of the solvent control (1% DMSO) or 25 μL of the concentrated tested compound solution was added to the test wells. Final concentrations of the compounds were 50.00, 25.00, 12.50, 6.25, 3.13, and 1.57 µg/mL. Subsequently, the plates were incubated at 25 °C for 2 days. The fraction of dead worms was determined after 48 h by counting the number of dead worms and the total number of worms in each well, using a Carl Zeiss™ Stemi 508 Stereomicroscope (Zeiss Group, Jena, Germany) at 40× magnification. The compounds were tested three times in each assay and each assay was repeated two times (n = 6). As a negative control experiment, nematodes were exposed to the medium containing 1% DMSO.

Another data set deals with A549 (lung cancer). Briefly: MTT antiproliferative assay on A549 cells. The data set is classed as cell-based. The following applies: Homo sapiens. The procedure:
as §1

The term IC50 denotes the concentration needed to halve the response being measured. On to `CCCCCC1=CC(=Cc2[nH]c(-c3ccc[nH]3)cc2OC)N=C1C` [PG, 4-Methoxy-5-[(5-methyl-4-pentyl-2H-pyrrol-2-ylidene)methyl]-1H,1'H-2,2'-bipyrrole], for which the half-inhibitory concentration (IC50) was 0.62 ± 0.01 µg/mL (≈ 1.92 µM) in data set [1] (MDA-MB-231, 48 h); 1.25 ± 0.04 µg/mL (≈ 3.86 µM) in data set [2] (A-375, 48 h); 0.62 to 1.3 µg/mL (≈ 1.92 to 4.02 µM) in data set [4] (read-out: IC50 values range over the tested cancer cell lines); 1.8 ± 0.04 µg/mL (≈ 5.57 µM) with MRC-5 (lung fibroblasts) (MRC5, 24 h); 1.2 ± 0.04 µg/mL (≈ 3.71 µM) in the data set on MRC-5 (lung fibroblasts) (MRC5, 48 h); 0.7 ± 0.02 µg/mL (≈ 2.16 µM) with MRC-5 (lung fibroblasts) (MRC5, 72 h). This compound also displayed an IC50 in the data set on A549 (lung cancer) (A549, 48 h) of 1.3 ± 0.02 µg/mL (≈ 4.02 µM). Besides, the “selectivity between healthy and cancer cell lines” value in data set [1] (MRC-5 vs breast cancer cells (MDA-MB-231), 48 h) is on record as 1.9. In data set [3], this compound showed a death rate of 100%. Moreover, the effect on embryos result in data set [3] (2.5 and 0.1 µg/mL, both at 6 hpf and 20 hpf) is given as “all the embryos survived, but developed into slightly smaller fish with microcephaly”. Besides, the “fold lower IC50 of 72 h in comparison to 24 h exposure” value in the data set on MRC-5 (lung fibroblasts) (MRC-5) turned out to be 2.5 fold. The Survival rate in data set [5] (1.57 µg/mL), in data set [5] (3.13 µg/mL), in data set [5] (6.25 µg/mL), in data set [5] (12.50 µg/mL), in data set [5] (25.00 µg/mL) and in data set [5] (50.00 µg/mL) was 100 ± 0.00% throughout.
With `CCCCCC1=C(Br)/C(=C/c2[nH]c(-c3[nH]ccc3Br)cc2OC)N=C1C` [PG-Br2], the concentration for half-maximal inhibition (IC50) in data set [1] (MDA-MB-231, 48 h treatment, read-out: IC50) turned out to be 17 ± 0.05 µg/mL (≈ 35.3 µM); in data set [2] (A-375, A375, 48 h treatment, read-out: IC50) it was 12 ± 0.04 µg/mL (≈ 24.9 µM); with MRC-5 (lung fibroblasts) (MRC5, MRC-5, 48 h treatment, read-out: IC50) it was 10 ± 0.09 µg/mL (≈ 20.8 µM); in the data set on MRC-5 (lung fibroblasts) (MRC5, MRC-5, exposure time 24 h, read-out: IC50), 15 ± 0.05 µg/mL (≈ 31.2 µM); in the data set on MRC-5 (lung fibroblasts) (MRC5, MRC-5, exposure time 72 h, read-out: IC50), 10 ± 0.08 µg/mL (≈ 20.8 µM); in the data set on A549 (lung cancer) (A549, 48 h treatment, read-out: IC50), 16 ± 0.08 µg/mL (≈ 33.2 µM). In data set [3], this compound came in with a death rate of 0%. Further, in data set [3] (20 µg/mL, 6 hpf and 20 hpf), the embryos survival rate is 100%. For the same compound, the teratogenic effects result in data set [3] (20 µg/mL, 6 hpf and 20 hpf) was “without any teratogenic effects”. The effect on embryos entry in data set [3] (50–70 µg/mL, application at 6 hpf) is “severe toxicity and abnormal development”. Moreover, the “lower cytotoxicity in comparison to PG” value in data set [4] (human) is reported as 8-27 fold. Besides, the Survival rate in data set [5] (1.57 µg/mL), in data set [5] (3.13 µg/mL), in data set [5] (6.25 µg/mL), in data set [5] (12.50 µg/mL), in data set [5] (25.00 µg/mL) and in data set [5] (50.00 µg/mL) was 100 ± 0.00% each time. Further, in data set [5] (all tested concentrations), the motility of nematodes entry is recorded as “significantly impaired”.

For the origin of these results see paper PMC9227013, “Synthesis, Anticancer Potential and Comprehensive Toxicity Studies of Novel Brominated Derivatives of Bacterial Biopigment Prodigiosin from Serratia marcescens ATCC 27117” (Molecules, 2022).
